Laboratory results as given in ChEMBL document CHEMBL3860078, “Thioflavones as novel neuroprotective agents” (Bioorg Med Chem, 2016).
Activity calls are given as the source filed them. The rule behind the calls is not given here.

Legend:
[1] = Neuroprotective activity against H2O2-induced oxidative stress in human SH-SY5Y cells assessed as cell viability at 3 uM preincubated for 24 hrs followed by H2O2 addition for 1 hr measured after 17 hrs by MTT assay relative to control; type: functional; conditions: read-out: Activity
[2] = Neurotoxicity against human SH-SY5Y cells assessed as reduction in cell viability at 3 to 10 uM after 24 hrs by MTT assay; type: toxicity, cell-based
[3] = Metal chelating activity assessed as Fe2+-compound complex fromation at 3 uM incubated for 5 mins in presence of ferrous chloride hexahydrate followed by ferrozine addition measured after 10 mins; type: physicochemical
[4] = Neurotoxicity against human SH-SY5Y cells assessed as reduction in cell viability at 10 uM after 24 hrs by MTT assay; type: toxicity, cell-based
[5] = biological target: T1, Bcl2-associated agonist of cell death (Homo sapiens) (UniProt Q92934); test: Induction of BAD phosphorylation in human SH-SY5Y cells at 3 uM preincubated for 24 hrs followed by H2O2 addition for 1 hr by pathscan sandwich immunoassay; type: cell-based
T1 sequence (whole entry): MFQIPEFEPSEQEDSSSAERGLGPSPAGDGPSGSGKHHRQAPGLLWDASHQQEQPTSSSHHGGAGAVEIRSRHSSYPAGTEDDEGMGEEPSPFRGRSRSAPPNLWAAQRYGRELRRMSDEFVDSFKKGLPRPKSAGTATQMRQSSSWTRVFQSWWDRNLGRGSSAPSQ

[6] = Antioxidant activity assessed as DPPH free radical scavenging activity at 3 uM after 30 mins incubation in dark; type: functional
[7] = Antioxidant activity assessed as DPPH free radical scavenging activity after 30 mins incubation in dark by UV-Vis spectrophotometric analysis; type: functional
SH-SY5Y = test: Induction of AMPKalpha phosphorylation in human SH-SY5Y cells at 3 uM preincubated for 24 hrs followed by H2O2 addition for 1 hr by pathscan sandwich immunoassay; type: cell-based
[8] = Neuroprotective activity in human SH-SY5Y cells assessed as protection against H2O2-induced oxidative stress at 0.3 uM preincubated for 24 hrs followed by H2O2 addition for 1 hr measured after 17 hrs by MTT assay relative to control; type: functional, cell-based
[9] = biological target: Proline-rich AKT1 substrate 1 (Homo sapiens) (UniProt Q96B36); test: Induction of PRAS40 phosphorylation in human SH-SY5Y cells at 3 uM preincubated for 24 hrs followed by H2O2 addition for 1 hr by pathscan sandwich immunoassay; type: cell-based
[10] = biological target: Mitogen-activated protein kinase; ERK1/ERK2 (Homo sapiens) (UniProt P27361+P28482); test: Induction of ERK1/2 phosphorylation in human SH-SY5Y cells at 3 uM preincubated for 24 hrs followed by H2O2 addition for 1 hr by pathscan sandwich immunoassay; type: cell-based
[11] = biological target: Serine/threonine-protein kinase mTOR (Homo sapiens) (UniProt P42345); test: Induction of mTOR phosphorylation in human SH-SY5Y cells at 3 uM preincubated for 24 hrs followed by H2O2 addition for 1 hr by pathscan sandwich immunoassay; type: cell-based
[12] = Metal chelating activity assessed as Fe2+-compound complex fromation incubated for 5 mins in presence of ferrous chloride hexahydrate followed by ferrozine addition measured after 10 mins
[13] = Antioxidant activity assessed as DPPH free radical scavenging activity after 30 mins incubation in dark; type: functional

Mitogen-activated protein kinase; ERK1/ERK2 (Homo sapiens), sequence (P27361 whole entry, looked up): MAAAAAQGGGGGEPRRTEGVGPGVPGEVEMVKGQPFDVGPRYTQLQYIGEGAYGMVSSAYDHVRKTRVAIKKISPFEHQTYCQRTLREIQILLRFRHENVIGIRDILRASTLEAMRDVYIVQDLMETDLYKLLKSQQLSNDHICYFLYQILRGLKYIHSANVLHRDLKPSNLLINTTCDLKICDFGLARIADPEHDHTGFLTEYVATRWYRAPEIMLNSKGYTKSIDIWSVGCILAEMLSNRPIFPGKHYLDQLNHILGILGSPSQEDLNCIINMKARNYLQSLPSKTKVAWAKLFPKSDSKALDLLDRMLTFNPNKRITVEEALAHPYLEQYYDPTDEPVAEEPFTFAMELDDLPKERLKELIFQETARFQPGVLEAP
Mitogen-activated protein kinase; ERK1/ERK2 (Homo sapiens), sequence (P28482 whole entry, looked up): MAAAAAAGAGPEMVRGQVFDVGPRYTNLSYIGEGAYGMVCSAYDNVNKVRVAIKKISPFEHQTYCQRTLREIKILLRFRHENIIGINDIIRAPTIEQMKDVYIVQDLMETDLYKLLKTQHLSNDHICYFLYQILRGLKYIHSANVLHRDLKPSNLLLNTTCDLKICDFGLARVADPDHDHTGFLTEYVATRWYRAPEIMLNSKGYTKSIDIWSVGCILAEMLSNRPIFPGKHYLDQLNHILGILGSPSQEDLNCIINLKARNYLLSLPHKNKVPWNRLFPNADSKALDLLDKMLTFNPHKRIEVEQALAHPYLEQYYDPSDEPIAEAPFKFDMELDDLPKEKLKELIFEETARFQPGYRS

Oc1ccc2c(=S)cc(-c3ccccc3)oc2c1O
viability at 3 µM [1]: 72.4%

O=c1cc(-c2ccc(F)cc2)oc2c(O)c(O)ccc12
viability at 3 µM [1]: 88.8%
Activity [2]: Non-Toxic

Oc1cc(O)c2c(=S)cc(-c3ccccc3)oc2c1
viability at 3 µM [1]: < 50%

Oc1ccc2c(=S)cc(-c3cccs3)oc2c1O
viability at 3 µM [1]: < 60%

Oc1ccc2c(=S)cc(-c3ccc(F)cc3)oc2c1O
viability at 3 µM [1]: 97.4%
Activity [2]: Non-Toxic

Oc1ccc2c(=S)cc(-c3ccc(Br)cc3)oc2c1O
Activity [3]: 4.4%
Activity [4]: 52%
viability at 3 µM [1]: 97.8%
Activity [5]: Active
Activity [6]: 1.6%

O=c1cc(-c2ccccc2)oc2c(O)c(O)ccc12 [7,8-DIHYDROXYFLAVONE]
Activity [3]: 3.7%
viability at 3 µM [1]: 96.2 to 97%
Activity [5]: Active
Activity [6]: 1.4%
Activity [2]: Non-Toxic
IC50 [7]: 15.5 µM

O=c1cc(-c2cccs2)oc2c(O)c(O)ccc12
viability at 3 µM [1]: < 60%

Oc1ccc2c(=S)cc(-c3ccco3)oc2c1O
viability at 3 µM [1]: < 60%

Oc1ccc2c(=S)cc(-c3cccnc3)oc2c1O
viability at 3 µM [1]: < 60%

O=c1cc(-c2ccc(Br)cc2)oc2c(O)c(O)ccc12
viability at 3 µM [1]: 84%
Activity [2]: Non-Toxic

Oc1ccc2c(=S)cc(-c3ccc(Cl)cc3)oc2c1O
Activity [3]: 5%
Activity (SH-SY5Y): Active
viability at 3 µM [1]: 107%
Activity [8]: > 70%
Activity [9]: Active
Activity [5]: Active
Activity [6]: 1.7%
Activity [2]: Non-Toxic
Activity [10]: Active
Activity [11]: Active

O=C(O)CN(CCN(CC(=O)O)CC(=O)O)CC(=O)O [EDETIC ACID]
Activity [3]: 6.9%
IC50 [12]: 42 µM

O=C1O[C@H]([C@@H](O)CO)C(O)=C1O [ASCORBIC ACID]
IC50 [13]: 330 µM
Activity [6]: 1.3%

N#Cc1ccc(-c2cc(=O)c3ccc(O)c(O)c3o2)cc1
viability at 3 µM [1]: 84.6%

Oc1cc(O)c2c(=S)cc(-c3ccc(O)c(O)c3)oc2c1
viability at 3 µM [1]: 67.4 to 73%
Activity [2]: Non-Toxic

O=c1cc(-c2ccc(Cl)cc2)oc2c(O)c(O)ccc12
Activity [3]: 3.7%
viability at 3 µM [1]: 93.4%
Activity [6]: 1.4%
Activity [11]: Active

O=c1cc(-c2ccco2)oc2c(O)c(O)ccc12
viability at 3 µM [1]: < 60%

O=c1cc(-c2cccnc2)oc2c(O)c(O)ccc12
viability at 3 µM [1]: < 60%

O=c1cc(-c2ccccc2)oc2cc(O)cc(O)c12 [CHRYSIN]
viability at 3 µM [1]: < 50%

O=c1cc(-c2ccc(O)c(O)c2)oc2cc(O)cc(O)c12 [LUTEOLIN]
Activity [3]: 3.4%
viability at 3 µM [1]: 98.3%
Activity [6]: 1.9%

N#Cc1ccc(-c2cc(=S)c3ccc(O)c(O)c3o2)cc1
Activity [3]: 3.9%
Activity (SH-SY5Y): Active
viability at 3 µM [1]: 106%
Activity [8]: > 70%
Activity [6]: 1.3%
Activity [2]: Non-Toxic
Activity [10]: Active
Activity [11]: Active
